pEC50: −log10 of the molar value. Counter-ions that a name gives are not always drawn.
The molecules below were run against T1, 5-HT2C receptor (Homo sapiens, UniProt P28335) (assay: Functional activity: beta-arrestin2 recruitment to the 5-HT2C receptor in U2OS_HTR2C-β-Arrestin cells (DiscoverX)). Conditions: 1.5 h incubation, chemiluminescent β-galactosidase complementation readout, read-out: Potency (EC50) in functional assay.
T1 construct: host or cells: U2OS
T1 sequence (P28335 33-458): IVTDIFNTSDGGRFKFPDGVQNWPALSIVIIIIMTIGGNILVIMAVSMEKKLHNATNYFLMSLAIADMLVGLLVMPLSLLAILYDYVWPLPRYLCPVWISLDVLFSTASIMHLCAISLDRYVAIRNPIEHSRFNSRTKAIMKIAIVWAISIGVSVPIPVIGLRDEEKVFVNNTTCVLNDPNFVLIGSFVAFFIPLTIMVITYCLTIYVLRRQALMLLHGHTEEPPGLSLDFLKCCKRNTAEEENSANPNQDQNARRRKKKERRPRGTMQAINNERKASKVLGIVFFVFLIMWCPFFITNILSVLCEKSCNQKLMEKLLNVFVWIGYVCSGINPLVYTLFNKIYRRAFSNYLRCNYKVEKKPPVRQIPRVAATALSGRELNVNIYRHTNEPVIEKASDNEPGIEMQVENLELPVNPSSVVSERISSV
T1 sequence (P32121 whole entry partner): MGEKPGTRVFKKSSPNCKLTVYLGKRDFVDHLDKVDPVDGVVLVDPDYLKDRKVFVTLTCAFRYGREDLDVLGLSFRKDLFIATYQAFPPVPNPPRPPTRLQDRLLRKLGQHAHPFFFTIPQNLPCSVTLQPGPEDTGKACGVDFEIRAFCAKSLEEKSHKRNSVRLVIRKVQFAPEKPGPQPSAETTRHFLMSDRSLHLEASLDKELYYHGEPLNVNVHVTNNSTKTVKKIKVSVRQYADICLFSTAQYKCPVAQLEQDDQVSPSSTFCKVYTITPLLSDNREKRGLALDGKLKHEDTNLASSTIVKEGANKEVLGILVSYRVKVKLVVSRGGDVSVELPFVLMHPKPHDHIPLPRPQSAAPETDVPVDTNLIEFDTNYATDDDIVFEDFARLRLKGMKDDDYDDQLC
Format: cell-based
Description: The functional activity of compounds of formula I was assayed by incubation with U2OS_HTR2C—β-Arrestin cells (DiscoverX, 93-0289C3) to induce beta-arrestin2 recruitment to the 5-HT2C receptor. The agonist-induced recruitment and proximity of the receptor and beta-arrestin2 leads to complementation and formation of active β-galactosidase. The enzyme complementation results in enzyme activity, which is measured following the termination of the agonist incubation using DiscoveRx's detection reagent, which contains a chemiluminescent substrate which produces a high intensity signal. Cells were plated and a medium-change to a 1% serum containing medium was performed 24 h later. The next day, test compounds were added and incubated for 1.5 h before addition of detection reagent.
The response produced was measured and compared with the response produced by 10 [mu]M 5-HT or the maximal effect induced by 5-HT (defined as 100%) to which it was expressed as a percentage response (relative efficacy). Dose response curves were constructed using Graphpad Prism (Graph Software Inc.) or using in house adapted software using a 4 parameter dose response model with variable slope (fit=(Bottom+(Top−Bottom)/(1+10̂((LogEC50−x)*HillSlope))res=(y-fit)). Results are compiled in the table below.
`CC1(C(F)(F)F)CCN2CCNCc3cccc1c32` (single isomer, unassigned) [Example 8, 8-Methyl-8-(trifluoromethyl)-2,3,4,6,7,8-hexahydro-1H-[1,4]diazepino[6,7,1-ij]quinoline] was tested, and the pEC50 was 6.70 to 7.70.
In the case of `CC1(C(F)(F)F)CCN2CCNCc3cccc1c32` (single isomer, unassigned) [Example 9, 8-Methyl-8-(trifluoromethyl)-2,3,4,6,7,8-hexahydro-1H-[1,4]diazepino[6,7,1-ij]quinoline], the pEC50 was greater than 7.70.
With `CC1CN2CCNCc3cccc(c32)C1(C)C` (single isomer, unassigned) [Example 27] the pEC50 was 6.00 to 6.70.
With `CC1CN2CCNCc3cccc(c32)C1(C)C` (single isomer, unassigned) [Example 28] the pEC50 was 6.70 to 7.70.
With `CC1(C)CCN2CCNCc3cccc1c32` [Example 1, 8,8-Dimethyl-2,3,4,6,7,8-hexahydro-1H-[1,4]diazepino[6,7,1-ij]quinoline] the pEC50 was 6.70 to 7.70.
`c1cc2c3c(c1)C1(CCCC1)CCN3CCNC2` [Example 6, 1,2,3,4,6,7-Hexahydrospiro[[1,4]diazepino[6,7,1-ij]quinoline-8,1′-cyclopentane]] showed a pEC50 of 6.70 to 7.70.
With `c1cc2c3c(c1)N1CCC[C@@H]1CN3CCNC2` [Example 16, (R)-5,6,7,9,9a,10,11,12-Octahydro-4H-[1,4]diazepino[1,7,6-de]pyrrolo[1,2-a]quinoxaline bis(2,2,2-trifluoroacetate)] the pEC50 was 6.00 to 6.70.
With `CC1(C)CCN2CCNCc3cc(Cl)cc1c32` [Example 19, 10-Chloro-8,8-dimethyl-2,3,4,6,7,8-hexahydro-1H-[1,4]diazepino[6,7,1-ij]quinoline bis(2,2,2-trifluoroacetate)] the pEC50 was 6.70 to 7.70.
`CC1(C)CCN2CCNCc3ccc(F)c1c32` [Example 22, 9-Fluoro-8,8-dimethyl-2,3,4,6,7,8-hexahydro-1H-[1,4]diazepino[6,7,1-ij]quinoline] gave a pEC50 of 6.70 to 7.70.
For `c1cc2c3c(c1)C1(CCC1)CCN3CCNC2` [Example 25, 1′,2′,3′,4′,6′,7′-Hexahydrospiro[cyclobutane-1,8′-[1,4]diazepino[6,7,1-ij]quinoline], hydrochloride], the pEC50 was 6.70 to 7.70.
`Fc1ccc2c3c1C1(CCC1)CCN3CCNC2` [Example 26, 9′-Fluoro-1′,2′,3′,4′,6′,7′-hexahydrospiro[cyclobutane-1,8′-[1,4]diazepino[6,7,1-ij]quinoline], hydrochloride] gave a pEC50 greater than 7.70.

Reference: patent US20140080813A1, “TRICYCLIC QUINOLINE AND QUINOXALINE DERIVATIVES” (ABBVIE DEUTSCHLAND GMBH & CO. KG, priority 2012, published 2014)
